The source made the active and inactive calls. No cut-off for these calls is given here.
What was measured:
[1] = tested on: SK-N-MC; test: Percentage viability of compound against SK-N-MC cell line; 92-94%; format: functional, Homo sapiens
[2] = tested on: T47D; test: Percentage viability of compound against T47D cell line; 92-94%; format: functional, Homo sapiens
[3] = tested on: MCF7; test: Percentage viability of compound against MCF-7 cell line; format: functional, Homo sapiens
[4] = tested on: MDA-MB-468; test: Percentage viability of compound against MDA-MB-468 cell line; 92-94%; format: functional, Homo sapiens
[5] = tested on: MDA-MB-468; test: Percentage viability of compound against MDA-MB-468 cell line; NE means No effect; format: functional, cell-based; details: Homo sapiens
[6] = tested on: T47D; test: Percentage viability of compound against T47D cell line; NE means No effect; format: functional, cell-based; details: Homo sapiens
[7] = tested on: MCF7; test: Percentage viability of compound against MCF-7 cell line; NE means No effect; format: functional, cell-based; details: Homo sapiens
[8] = tested on: SK-N-MC; test: Percentage viability of compound against SK-N-MC cell line; NE means No effect; format: functional, cell-based; details: Homo sapiens

SMILES | Viability [1] [%] | Viability [2] [%] | Viability [3] [%] | Viability [4] [%] | Viability [5] | Viability [6] | Viability [7] | Viability [8]
CCCCCCCCCCCCCCCCOC[C@@H](/C=C/P(=O)([O-])OCC[N+](C)(C)C)OC | <94 | <94 | 61 | <94 |  |  |  | 
CCCCCCCCCCCCCCCCOC[C@H](/C=C/P(=O)([O-])OCC[N+](C)(C)C)OC |  |  |  |  | inactive | inactive | inactive | inactive

— ChEMBL document CHEMBL1148455, “Synthesis and use of novel ether phospholipid enantiomers to probe the molecular basis of the antitumor Effects of alkyllysophospholipids: correlation of differential activation of c-Jun NH(2)-terminal protein kinase with antiproliferative effects in neuronal tumor cells” (2004)
